Bridge positions count the residues as written; N and C are the ends. Square brackets hold non-standard residues; d marks the D form. Side chains are listed from the residue outwards. Peptide text beside a SMILES is read from it. I, II: the chains in the order shown. * marks the point of attachment. Stearoyl = CCCCCCCCCCCCCCCCCC(=O)*
Assays:
HeLa cells = assay: Cell viability by PrestoBlue assay after transfection, HeLa cells; type: cell-based; conditions: 4 h
HEK293 cells = assay: Cell viability by PrestoBlue assay after transfection, HEK cells; type: cell-based; conditions: 4 h

Row | Structure (SMILES) | % viability HeLa cells (HeLa cells) [%] | % viability HEK cells (HEK293 cells) [%]
1 | CCCCCCCCCCCCCCCCCC(=O)NCCCC[C@@H](NC(=O)[C@@H](CCCCNC(=O)[C@@H](CC(C)C)NC(=O)[C@@H](CCCNC(=N)N)NC(=O)[C@@H](CCCCNC(=O)[C@@H](CC(C)C)NC(=O)[C@@H](CCCNC(=N)N)NC(=O)[C@@H](CCCCNC(=O)[C@@H](CC(C)C)NC(=O)[C@H](N)CCCNC(=N)N)NC(=O)[C@@H](CC(C)C)NC(=O)[C@H](N)CCCNC(=N)N)NC(=O)[C@@H](CC(C)C)NC(=O)[C@@H](CCCNC(=N)N)NC(=O)[C@@H](CCCCNC(=O)[C@@H](CC(C)C)NC(=O)[C@H](N)CCCNC(=N)N)NC(=O)[C@@H](CC(C)C)NC(=O)[C@H](N)CCCNC(=N)N)NC(=O)[C@@H](CC(C)C)NC(=O)[C@@H](CCCNC(=N)N)NC(=O)[C@@H](CCCCNC(=O)[C@@H](CC(C)C)NC(=O)[C@@H](CCCNC(=N)N)NC(=O)[C@@H](CCCCNC(=O)[C@@H](CC(C)C)NC(=O)[C@H](N)CCCNC(=N)N)NC(=O)[C@@H](CC(C)C)NC(=O)[C@H](N)CCCNC(=N)N)NC(=O)[C@@H](CC(C)C)NC(=O)[C@@H](CCCNC(=N)N)NC(=O)[C@@H](CCCCNC(=O)[C@@H](CC(C)C)NC(=O)[C@H](N)CCCNC(=N)N)NC(=O)[C@@H](CC(C)C)NC(=O)[C@H](N)CCCNC(=N)N)C(=O)N[C@H](CS)C(N)=O [Z22] (I: H-[dR][dL][dK]([dL-dR])[dR][dL][dK][dR][dL][dK][dK](Stearoyl)[dC]-NH2 / II: H-[dR][dL][dK]([dL-dR])[dR][dL][dK][dR][dL] / III: H-[dR][dL][dK]([dL-dR])[dR][dL] / IV: H-[dR][dL][dK]([dL-dR])[dR][dL]; amide I:6-IV:C, I:9-II:C, II:6-III:C) | 92 ± 7 | 64 ± 4
2 | CCCCCCCCCCCCCCCCCC(=O)NCCCC[C@H](NC(=O)[C@H](CCCCNC(=O)[C@H](CC(C)C)NC(=O)[C@H](CCCNC(=N)N)NC(=O)[C@H](CCCCNC(=O)[C@H](CC(C)C)NC(=O)[C@H](CCCNC(=N)N)NC(=O)[C@H](CCCCNC(=O)[C@H](CC(C)C)NC(=O)[C@@H](N)CCCNC(=N)N)NC(=O)[C@H](CC(C)C)NC(=O)[C@@H](N)CCCNC(=N)N)NC(=O)[C@H](CC(C)C)NC(=O)[C@H](CCCNC(=N)N)NC(=O)[C@H](CCCCNC(=O)[C@H](CC(C)C)NC(=O)[C@@H](N)CCCNC(=N)N)NC(=O)[C@H](CC(C)C)NC(=O)[C@@H](N)CCCNC(=N)N)NC(=O)[C@H](CC(C)C)NC(=O)[C@H](CCCNC(=N)N)NC(=O)[C@H](CCCCNC(=O)[C@H](CC(C)C)NC(=O)[C@H](CCCNC(=N)N)NC(=O)[C@H](CCCCNC(=O)[C@H](CC(C)C)NC(=O)[C@@H](N)CCCNC(=N)N)NC(=O)[C@H](CC(C)C)NC(=O)[C@@H](N)CCCNC(=N)N)NC(=O)[C@H](CC(C)C)NC(=O)[C@H](CCCNC(=N)N)NC(=O)[C@H](CCCCNC(=O)[C@H](CC(C)C)NC(=O)[C@@H](N)CCCNC(=N)N)NC(=O)[C@H](CC(C)C)NC(=O)[C@@H](N)CCCNC(=N)N)C(=O)N[C@@H](CS)C(N)=O [Z24] (I: H-RLK([Leu-Arg])RLKRLKK(Stearoyl)C-NH2 / II: H-RLK([Leu-Arg])RLKRL / III: H-RLK([Leu-Arg])RL / IV: H-RLK([Leu-Arg])RL; amide I:6-IV:C, I:9-II:C, II:6-III:C) | 91 ± 6 | 86 ± 1
3 | CCCCCCCCCCCCCCCCCC(=O)NCCCC[C@H](NC(=O)[C@H](CCCCNC(=O)[C@H](CC(C)C)NC(=O)[C@H](CCCNC(=N)N)NC(=O)[C@H](CCCCNC(=O)[C@H](CC(C)C)NC(=O)[C@H](CCCNC(=N)N)NC(=O)[C@H](CCCCNC(=O)[C@H](CC(C)C)NC(=O)[C@@H](N)CCCNC(=N)N)NC(=O)[C@H](CC(C)C)NC(=O)[C@@H](N)CCCNC(=N)N)NC(=O)[C@H](CC(C)C)NC(=O)[C@H](CCCNC(=N)N)NC(=O)[C@H](CCCCNC(=O)[C@H](CC(C)C)NC(=O)[C@@H](N)CCCNC(=N)N)NC(=O)[C@H](CC(C)C)NC(=O)[C@@H](N)CCCNC(=N)N)NC(=O)[C@H](CC(C)C)NC(=O)[C@H](CCCNC(=N)N)NC(=O)[C@H](CCCCNC(=O)[C@H](CC(C)C)NC(=O)[C@H](CCCNC(=N)N)NC(=O)[C@H](CCCCNC(=O)[C@H](CC(C)C)NC(=O)[C@@H](N)CCCNC(=N)N)NC(=O)[C@H](CC(C)C)NC(=O)[C@@H](N)CCCNC(=N)N)NC(=O)[C@H](CC(C)C)NC(=O)[C@H](CCCNC(=N)N)NC(=O)[C@H](CCCCNC(=O)[C@H](CC(C)C)NC(=O)[C@@H](N)CCCNC(=N)N)NC(=O)[C@H](CC(C)C)NC(=O)[C@@H](N)CCCNC(=N)N)C(=O)N[C@@H](C)C(N)=O [Z25] (I: H-RLK([Leu-Arg])RLKRLKK(Stearoyl)A-NH2 / II: H-RLK([Leu-Arg])RLKRL / III: H-RLK([Leu-Arg])RL / IV: H-RLK([Leu-Arg])RL; amide I:6-IV:C, I:9-II:C, II:6-III:C) | 104 ± 8 | 85 ± 2
4 | CCCCCCCCCCCCCCCCCC(=O)NCCCC[C@@H](NC(=O)[C@@H](CCCCNC(=O)CCCCCCCCCCCCCCCCC)NC(=O)[C@@H](CCCCNC(=O)[C@@H](CC(C)C)NC(=O)[C@@H](CCCCN)NC(=O)[C@@H](CCCCNC(=O)[C@@H](CC(C)C)NC(=O)[C@@H](CCCCN)NC(=O)[C@@H](CCCCNC(=O)[C@@H](CC(C)C)NC(=O)[C@H](N)CCCCN)NC(=O)[C@@H](CC(C)C)NC(=O)[C@H](N)CCCCN)NC(=O)[C@@H](CC(C)C)NC(=O)[C@@H](CCCCN)NC(=O)[C@@H](CCCCNC(=O)[C@@H](CC(C)C)NC(=O)[C@H](N)CCCCN)NC(=O)[C@@H](CC(C)C)NC(=O)[C@H](N)CCCCN)NC(=O)[C@@H](CC(C)C)NC(=O)[C@@H](CCCCN)NC(=O)[C@@H](CCCCNC(=O)[C@@H](CC(C)C)NC(=O)[C@@H](CCCCN)NC(=O)[C@@H](CCCCNC(=O)[C@@H](CC(C)C)NC(=O)[C@H](N)CCCCN)NC(=O)[C@@H](CC(C)C)NC(=O)[C@H](N)CCCCN)NC(=O)[C@@H](CC(C)C)NC(=O)[C@@H](CCCCN)NC(=O)[C@@H](CCCCNC(=O)[C@@H](CC(C)C)NC(=O)[C@H](N)CCCCN)NC(=O)[C@@H](CC(C)C)NC(=O)[C@H](N)CCCCN)C(N)=O [Z27] (I: H-[dK][dL][dK]([dL-dK])[dK][dL][dK][dK][dL][dK][dK](Stearoyl)[dK](Stearoyl)-NH2 / II: H-[dK][dL][dK]([dL-dK])[dK][dL][dK][dK][dL] / III: H-[dK][dL][dK]([dL-dK])[dK][dL] / IV: H-[dK][dL][dK]([dL-dK])[dK][dL]; amide I:6-IV:C, I:9-II:C, II:6-III:C) | 94 ± 5 | 74.8 ± 0.7
